{
  "source": "patent US20200123142A1",
  "about": "“Substituted Cyclohexylamine Compounds” (EPIZYME, INC., priority 2018, published 2020)",
  "biological_target": "T1, SMYD3 (Homo sapiens, UniProt Q9H7B4)",
  "T1 construct": "Expressed full-length human His-tagged SMYD3 protein was purified from cell paste; His6 (cleaved yes); SUMO (with TEV site) (cleaved yes); made in house; host or cells: E. coli BL21 codonplus RIL",
  "T1 sequence (Q9H7B4 1-428)": "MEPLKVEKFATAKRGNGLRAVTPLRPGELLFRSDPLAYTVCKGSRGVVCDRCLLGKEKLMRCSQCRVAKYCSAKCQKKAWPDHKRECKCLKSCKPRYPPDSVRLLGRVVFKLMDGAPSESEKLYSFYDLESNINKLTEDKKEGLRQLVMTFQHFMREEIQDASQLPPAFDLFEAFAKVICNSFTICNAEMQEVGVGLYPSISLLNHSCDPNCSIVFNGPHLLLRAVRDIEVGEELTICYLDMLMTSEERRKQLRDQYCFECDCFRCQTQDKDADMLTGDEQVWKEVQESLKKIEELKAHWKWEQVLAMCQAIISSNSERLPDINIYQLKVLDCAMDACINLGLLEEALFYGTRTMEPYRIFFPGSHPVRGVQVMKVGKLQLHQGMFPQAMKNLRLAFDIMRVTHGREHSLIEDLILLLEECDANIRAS",
  "assay": "SMYD3 Biochemical Assay (SMYD3 enzyme assay on MEKK2 protein substrate, 3H-SAM, scintillation proximity assay)",
  "details": "read-out: SMYD3 Biochem IC50 (uM)*",
  "text": "S-adenosylmethionine (SAM), S-adenosylhomocysteine (SAH), Tris, Tween20, dimethylsulfoxide (DMSO), bovine skin gelatin (BSG), and Tris(2-carboxyethyl)phosphine hydrochloride solution (TCEP) were purchased from Sigma-Aldrich at the highest level of purity possible. ^3H-SAM was purchase from American Radiolabeled Chemicals with a specific activity of 80 Ci/mmol.\nThis protein was expressed in High Five insect cells and purified to >85% purity. Protein identity was confirmed by MS/MS analysis after proteolytic digestion. The protein sequence used was:\nFull-length human SMYD3 isoform 1 (BAB86333) was inserted into a modified pET21b plasmid containing a His6 tag and TEV and SUMO cleavage sites.\nTransformed cells were grown and selected on LB agar with 100 μg/mL ampicillin and 17 μg/mL chloramphenicol at 37° C. overnight. A single clone was used to inoculate 200 mL of LB medium with 100 μg/mL ampicillin and 17 μg/mL chloramphenicol and incubated at 37° C. on an orbital shaker at 180 rpm. […] Once OD600 reached about 0.4, IPTG was added to a final concentration of 0.1 mM and the cells were grown overnight at 15° C. and 160 rpm. Cells were harvested by centrifugation at 8000 rpm, for 4 minutes at 4° C. and stored at −80° C. for purification. […]",
  "data": [
    {"compound": "NCCC(=O)N(CCN)[C@H]1CC[C@H](NC(=O)c2cc(C3CC3)on2)CC1", "note": "[compound 35, N-((1r,4r)-4-(3-amino-N-(2-aminoethyl)pro-panamido)cyclo-hexyl)-5-cyclo-propylisoxazole-3-carboxamide]", "values": [
      {"measurement": "IC50", "result": 0.883, "unit": "µM"}
    ]}
  ]
}
